The values below come from patent publication US4443436A, “C-20-Modified macrolide derivatives of the macrolide antibiotics tylosin, desmycosin, macrocin, and lactenocin” (Eli Lilly and Company, priority 1982, dated 1984).

≈ marks a conversion by molar mass, not a printed value. Read-outs that look alike come from different tables or passages of the source.

Type in all cases: cell-based
For assay [1], the system named is Staphylococcus aureus S13E. The assay can be described thus: MIC, standard agar-dilution assay, Staphylococcus aureus S13E.
In assay [2] the test system is Pasteurella multocida 17E. The assay can be described thus: MIC, broth-dilution microtiter test, Pasteurella multocida 17E. The source says:
(§1) The MIC's in Table X were obtained using conventional broth-dilution microtiter tests.

The subject of assay [3] is Streptococcus pyogenes C203. Put plainly: MIC, standard agar-dilution assay, Streptococcus pyogenes C203.
Assay [4] deals with Staphylococcus aureus X1.1. Put plainly: MIC, standard agar-dilution assay, Staphylococcus aureus X1.1.
For assay [5], the system named is Streptococcus pneumoniae Park I. The assay can be described thus: microbe, parasite or virus in culture.
The subject of assay [6] is Staphylococcus epidermidis EPI1. Put plainly: MIC, standard agar-dilution assay, Staphylococcus epidermidis EPI1.
Assay [7] deals with Haemophilus influenzae R252. The assay can be described thus: MIC, standard agar-dilution assay, Haemophilus influenzae R252.
Assay [8] relates to Streptococcus bovis 80. The assay can be described thus: MIC, broth-dilution microtiter test, Streptococcus bovis 80. The conditions noted are these: Streptococcus equinus.
Text: as §1

In assay [9] the test system is Streptococcus Group 9960. Put plainly: MIC, standard agar-dilution assay, Streptococcus Group 9960. The conditions noted are these: Streptococcus Group 9960, agar dilution.
Assay [10] deals with Staphylococcus epidermidis EPI2. Put plainly: MIC, standard agar-dilution assay, Staphylococcus epidermidis EPI2.
The test system of assay [11] is Staphylococcus aureus V41. The assay can be described thus: MIC, standard agar-dilution assay, Staphylococcus aureus V41.
The subject of assay [12] is Staphylococcus aureus X400. The assay can be described thus: MIC, standard agar-dilution assay, Staphylococcus aureus X400.
Assay [13] deals with Pasteurella hemolytica 22C. The assay can be described thus: MIC, broth-dilution microtiter test, Pasteurella hemolytica 22C. Conditions: Pasteurella hemolytica 22C; broth-dilution microtiter; read-out: MIC.
Text: as §1

The subject of assay [14] is Mycoplasma hyorhinis. The assay can be described thus: MIC, broth-dilution microtiter test, Mycoplasma hyorhinis.
Text: as §1

Assay [15] deals with Staphylococcus aureus. Put plainly: MIC, broth-dilution microtiter test, Staphylococcus aureus.
Text: as §1

Assay [16] relates to Pasteurella multocida 60A. Put plainly: MIC, broth-dilution microtiter test, Pasteurella multocida 60A. Conditions: Pasteurella multocida 60A; avian isolate; broth-dilution microtiter; read-out: MIC.
Text: as §1

Assay [17] has as its system Streptococcus Group D X66. Put plainly: MIC, standard agar-dilution assay, Streptococcus Group D X66. Conditions: Streptococcus Group D X66, agar dilution. (In general: In agar dilution, organisms are placed on agar that contains the substance at set levels.)
Assay [18] has as its system Mycoplasma gallisepticum. Put plainly: MIC, broth-dilution microtiter test, Mycoplasma gallisepticum. Conditions: Mycoplasmoides gallisepticum.
Text: as §1

The subject of assay [19] is Haemophilus influenzae Holt. Put plainly: MIC, standard agar-dilution assay, Haemophilus influenzae Holt.
The mark [20] stands for this setting: Staphylococcus epidermidis, EPI1.
[21] abbreviates: Staphylococcus epidermidis, EPI2.

Regarding `CCC1OC(=O)CC(O)C(C)C(OC2OC(C)C(OC3CC(C)(O)C(O)C(C)O3)C(N(C)C)C2O)C(CCNC(=O)Cc2ccccc2)CC(C)C(=O)C=CC(C)=CC1COC1OC(C)C(O)C(OC)C1OC` (centres unmarked) [Compound 3, 20-DH-DO-20-[N-(Phenylacetyl)amino]tylosin], the MIC in [1] (Staphylococcus aureus, S13E) was 0.5 µg/mL (≈ 0.483 µM); in assay [2] (Pasteurella multocida 17E, bovine isolate, broth-dilution microtiter, read-out: MIC), more than 50 µg/mL; in [3] (Streptococcus pyogenes, C203), 2 µg/mL (≈ 1.93 µM); in assay [4] (Staphylococcus aureus, X1.1), 1 µg/mL (≈ 0.966 µM); in assay [5] (Streptococcus pneumoniae) it was 1 µg/mL (≈ 0.966 µM); in assay [6] (setting [20]), 0.5 µg/mL (≈ 0.483 µM). In addition, the MIC in [7] (Haemophilus influenzae, R252) was 64 µg/mL (≈ 61.8 µM); in assay [8] (Streptococcus bovis 80, broth-dilution microtiter, read-out: MIC), 6.25 µg/mL (≈ 6.04 µM); in [9] (GROUP9960, read-out: MIC) it was 64 µg/mL (≈ 61.8 µM); in assay [10] (setting [21]) it was 0.5 µg/mL (≈ 0.483 µM); in assay [11] (Staphylococcus aureus, V41), 1 µg/mL (≈ 0.966 µM); in [12] (Staphylococcus aureus, X400), 2 µg/mL (≈ 1.93 µM). For the same compound, the MIC in assay [13] was more than 50 µg/mL; in assay [14] (Mycoplasma), 12.5 µg/mL (≈ 12.1 µM); in assay [15], 1.56 µg/mL (≈ 1.51 µM); in assay [16], more than 50 µg/mL; in assay [17] (read-out: MIC), 64 µg/mL (≈ 61.8 µM); in assay [18], 0.78 µg/mL (≈ 0.753 µM). In assay [19] (Haemophilus influenzae), this compound came in with an MIC of 128 µg/mL (≈ 124 µM).

As to `CCC1OC(=O)CC(O)C(C)C(OC2OC(C)C(OC3CC(C)(O)C(O)C(C)O3)C(N(C)C)C2O)C(CCOC(=O)c2nn(CC)c3cc4c(cc3c2=O)OCO4)CC(C)C(=O)C=CC(C)=CC1COC1OC(C)C(O)C(OC)C1OC` (centres unmarked) [Compound 10, 20-DH-20-O-Cinoxacinyltylosin], the MIC is 4 µg/mL (≈ 3.44 µM) in [1] (Staphylococcus aureus, S13E); more than 50 µg/mL in [2] (Pasteurella multocida, 17E); 1 µg/mL (≈ 0.86 µM) in [3] (Streptococcus pyogenes, C203); 1 µg/mL (≈ 0.86 µM) in [4] (Staphylococcus aureus, X1.1); 0.5 µg/mL (≈ 0.43 µM) in [5] (Streptococcus pneumoniae); 2 µg/mL (≈ 1.72 µM) in assay [6] (setting [20]). Further, the MIC turned out to be 128 µg/mL (≈ 110 µM) in assay [7] (Haemophilus influenzae, R252); 3.12 µg/mL (≈ 2.68 µM) in assay [8] (80); 8 µg/mL (≈ 6.88 µM) in assay [9] (GROUP9960, read-out: MIC); 8 µg/mL (≈ 6.88 µM) in assay [10] (setting [21]); 2 µg/mL (≈ 1.72 µM) in assay [11] (Staphylococcus aureus, V41); 8 µg/mL (≈ 6.88 µM) in assay [12] (Staphylococcus aureus, X400). Also, the MIC in [13] is more than 50 µg/mL; in assay [14] (Mycoplasma hyorhinis, broth-dilution microtiter, read-out: MIC) it was 25 µg/mL (≈ 21.5 µM); in assay [15] it was 12.5 µg/mL (≈ 10.8 µM); in assay [16] it was more than 50 µg/mL; in assay [17] (read-out: MIC), 8 µg/mL (≈ 6.88 µM); in [18] it was 0.78 µg/mL (≈ 0.671 µM). In assay [19] (Haemophilus influenzae), this compound yielded an MIC of 128 µg/mL (≈ 110 µM).

For `CCC1OC(=O)CC(O)C(C)C(OC2OC(C)C(O)C(N(C)C)C2O)C(CCNC(=O)COc2ccccc2)CC(C)C(=O)C=CC(C)=CC1COC1OC(C)C(O)C(OC)C1OC` (centres unmarked) [Compound 51c, 20-DH-DO-20-(N-phenoxyacetyl)aminodesmycosin], the MIC turned out to be 0.25 µg/mL (≈ 0.276 µM) in [1] (Staphylococcus aureus S13E, agar dilution); 0.25 µg/mL (≈ 0.276 µM) in assay [3] (Streptococcus pyogenes C203, agar dilution); 0.25 µg/mL (≈ 0.276 µM) in assay [4] (Staphylococcus aureus X1.1, agar dilution); 0.25 µg/mL (≈ 0.276 µM) in assay [5] (Streptococcus pneumoniae Park I, agar dilution); 0.25 µg/mL (≈ 0.276 µM) in [6] (Staphylococcus epidermidis EPI1, agar dilution); 8 µg/mL (≈ 8.82 µM) in assay [7] (Haemophilus influenzae R252, ampicillin-resistant strain, agar dilution). Further, the MIC was 1 µg/mL (≈ 1.1 µM) in [9]; 0.12 µg/mL (≈ 0.132 µM) in assay [10] (Staphylococcus epidermidis EPI2, agar dilution); 0.25 µg/mL (≈ 0.276 µM) in [11] (Staphylococcus aureus V41, penicillin-resistant strain, agar dilution); 0.5 µg/mL (≈ 0.551 µM) in assay [12] (Staphylococcus aureus X400, methicillin-resistant strain, agar dilution); 1 µg/mL (≈ 1.1 µM) in assay [17]; 8 µg/mL (≈ 8.82 µM) in assay [19] (Haemophilus influenzae Holt, ampicillin-sensitive strain, agar dilution).
